Publication PMC6944649, “Population Pharmacokinetics, Efficacy Exposure-response Analysis, and Model-based Meta-analysis of Fenebrutinib in Subjects with Rheumatoid Arthritis” (Pharmaceutical Research, 2020)
Each block holds one compound with its values, some of them ahead of it.

Assays:
[1] = Population pharmacokinetic (popPK) analysis of fenebrutinib plasma concentrations (Phase 1 GA29347, GP29832 and Phase 2 GA29350); format: in vivo, human
Protocol: Fenebrutinib plasma concentrations were determined by high performance liquid chromatography with tandem mass spectrometry (MS/MS) detection (Covance Laboratories Inc., USA). Calibration plots were linear throughout the range of 0.5 to 500 ng/mL (lower and upper limits of quantification, respectively) for fenebrutinib in human plasma. Relative standard deviation of precision was <7.8%, and the accuracy of the method was between 91.3% and 102.7%.
Fenebrutinib plasma concentrations from subjects providing all available PK data after tablet administration in the clinical studies were integrated into the popPK analysis. The model was characterized initially in healthy subjects ([22]) from the Phase 1 multiple ascending dose (MAD) (GA29347) and a Phase 1 relative bioavailability/food effect/drug-drug interaction (GP29832, ClinicalTrials.gov Identifier: NCT02699710) studies, and later updated to incorporate the Phase 2 data from the three fenebrutinib-treated arms in patients with RA.
The popPK model was developed by introducing features in the order of increasing complexity, beginning with very simple models (e.g. one-compartment with first-order elimination), and continuing until further improvement in model fit was not supported by the data.
Covariate analysis first investigated the effects of pre-defined demographic, laboratory, prognostic, and treatment covariates on all the model parameters by using univariate screening. If >10% of a covariate was missing, the covariate was not included in the popPK analysis. Otherwise, the value of missing covariate observations was imputed as the median of the remaining values from an appropriate sub-population. For example, the missing baseline body weight value was imputed as the gender-adjusted median body weight of the remaining subjects. For categorical covariates, the most frequently occurring value was imputed for subjects with missing values in each trial. Concomitant proton pump inhibitor (PPI) and food were categorized as time-varying covariates, whereas the other categorical covariates were considered as baseline (non-time-varying) covariates. Next, covariates selected from the univariate screening (p value <0.05) were included in the evaluation of a full model followed by backwards elimination (p value <0.01). Effects of continuous covariates were incorporated into the model using the power function and normalized using the median of the covariate. Effects of categorical covariates were parameterized as proportional effects in the model, in which the fractional change on a model parameter was estimated, and the typical category constituted the largest proportion in the analysis population.
The final model was determined on the basis of objective function value, physiological plausibility of model parameter estimates, numerical convergence success, parameter estimate precision (relative standard errors <50%), and visual predictive check (VPC) plots. Goodness-of-fit plots were produced to verify the general agreement of fitted values with observed data. Prediction-corrected visual predictive check (pcVPC) was performed by normalizing the observed and simulated dependent variable based on the typical population prediction for the median independent variable in the bin ([26]). The pcVPC was stratified to evaluate the covariate effects of interest, whenever applicable. […]
Model development was carried out using first order conditional estimation with interaction (FOCE-I) as implemented in NONMEM (version 7.3, ICON Development Solutions, Ellicott City, MD). Post-processing of NONMEM analysis results was carried out in R (version 3.2.2, R Development Core Team, 2008).

[2] = Phase 1 relative bioavailability/food effect/drug-drug interaction study (GP29832), non-compartmental analysis; format: in vivo, human; details: healthy volunteers
[3] = tested on: patients with rheumatoid arthritis; assay: Exposure-response (E-R) analysis of longitudinal ACR20, ACR50, ACR70 in Phase 2 trial GA29350; format: in vivo, human
Text: (§1) GA29350 (ANDES, ClinicalTrials.gov Identifier: NCT02833350) was a multicenter, Phase 2, randomized, double-blind, placebo-controlled, parallel-group, dose-ranging trial to evaluate the efficacy and safety of fenebrutinib in patients with moderate to severe active RA and an inadequate response to previous MTX therapy (cohort 1) or anti-TNF therapy (cohort 2) ([24],[25]).
(§2) In cohort 1, 480 patients were enrolled, and were randomly assigned to 1 of 5 parallel treatment arms (3 fenebrutinib arms, 1 placebo arm, and 1 adalimumab arm). In the fenebrutinib and placebo arms, subjects received 50 mg QD, 150 mg QD, or 200 mg BID fenebrutinib tablets or placebo tablets, together with subcutaneous (SC) placebo injections every other week for 12 weeks (n = 40 in the 50 mg arm, and n = 109 to 111 in each of the other 4 arms). In the active comparator arm, patients received adalimumab 40 mg SC every other week and placebo tablets for 12 weeks. In cohort 2 (n = 98 enrolled), patients received 200 mg fenebrutinib BID or placebo tablets for 12 weeks.
(§3) Treatment responses in RA clinical trials are commonly evaluated by the American College of Rheumatology improvement criteria for 20, 50, and 70% threshold values (ACR20, ACR50, and ACR70, respectively), which is a binary response variable, and by the Disease Activity Score with 28-joint counts (DAS28), which is a continuous variable ([27],[28]). Both types of endpoints can be measured repeatedly during the course of the treatment period. The proportion of patients achieving ACR50 responses and analysis of longitudinal DAS28 (CRP) (DAS based on 28 joints and C-reactive protein value) were evaluated as the primary, key secondary, and secondary endpoints in the Phase 2 trial, and therefore, were of primary interest among clinical efficacy endpoints modeled for fenebrutinib. The E-R analyses aimed to establish the relationship between patient-specific fenebrutinib exposure with clinical efficacy endpoints of interest. […]

[4] = tested on: patients with rheumatoid arthritis; assay: Exposure-response (E-R) analysis of longitudinal DAS28 (CRP) in Phase 2 trial GA29350; format: in vivo, human
Text: as §1, §2, §3

[5] = tested on: patients with rheumatoid arthritis; assay: Model-based meta-analysis (MBMA) of ACR20, ACR50, ACR70; format: in vivo, human
Protocol: An efficacy and safety meta-analysis database was constructed in July 2017 using publicly available data of randomized trials in RA, based on the guidelines in the Cochrane Handbook for Systematic reviews. For this, a systematic review of publicly available data from the PubMed, Cochrane Library, and Embase databases was conducted using the search term “rheumatoid arthritis”. Furthermore, an existing database that contained data published in or before 2012 ([30]) was augmented using an additional, systematic, and quality-controlled procedure to search for relevant published studies, extract their data, and add to the existing database yielding pertinent data published through 2017.
The summary data of the database were explored systematically to determine the amount of data available for each treatment, efficacy and safety endpoint across trials, distribution of mean patient characteristics, and to graphically view the time course of longitudinal endpoints, placebo effect, active treatment effect from each of the comparator treatments, and the effects of patient and trial characteristics. Response rates of ACR20, ACR50, and ACR70 in terms of the proportion of patients achieving specified thresholds were the most prevalent efficacy endpoints in the database, and therefore, were chosen as the variables for model development using MBMA. Because of the relatively few adverse events observed in the fenebrutinib Phase 2 trial in RA ([24]), MBMA for safety events, such as serious infections, was not conducted.
The model simultaneously fit ACR20, ACR50, and ACR70 longitudinal data, and a non-linear mixed effects (NLME) estimation method was carried out using R. This hierarchical regression model used maximum likelihood estimation, and multiple levels of heterogeneity were described as mixed effect variability terms accommodating between-trial and within-trial variability. […]
The adequacy of model fits across trials was evaluated by visually inspecting time course plots of observed distributions vs. predicted values. […]

[6] = set-up: method as in PMID 29484638; details: Phase 1, cited from earlier work
[7] = tested on: BTK; set-up: method as in PMID 29484638; details: healthy volunteers, Phase 1; cited from earlier work

apparent clearance (CL/F) decrease with concomitant administration of PPI ([1]; concomitant PPI): 33.7% | CL/F: Apparent systemic clearance ([1]; final popPK model estimate θ1, oral, typical RA patient): 19.5 L/h | NTR: Number of transit compartments ([1]; final popPK model estimate θ7, transit compartment absorption model): 14.9 | MTT: Mean transit time ([1]; final popPK model estimate θ8): 0.849 h | Food effect on MTT ([1]; final popPK model estimate θ11, covariate effect): 1.43 | PPI effect on MTT ([1]; final popPK model estimate θ12, concomitant proton pump inhibitor): 0.835 | PPI and food effect on MTT ([1]; final popPK model estimate θ13): 2.26 | PPI effect on F1 ([1]; final popPK model estimate θ14, F1 relative extent of absorption): 0.657 | PPI and food effect on F1 ([1]; final popPK model estimate θ15): 0.693 | Food effect on NTR ([1]; final popPK model estimate θ16): 0.864 | Tablet effect on NTR ([1]; final popPK model estimate θ17, formulation effect): 0.049 | Vd/F ([1]; human, plasma, oral, final popPK model estimate θ2, read-out: V1/F: Apparent central volume of distribution): 381 L | ω^2CL/F ([1]; inter-individual variability ω1.1): 0.0732 | ω^2V1/F ([1]; inter-individual variability ω2.2): 0.100 | ω^2MTT ([1]; inter-individual variability ω8.8): 0.0861 | ω^2F1 ([1]; inter-individual variability ω9.9): 0.131 | ω^2IOV on F1 ([1]; inter-occasion variability ω10.1): 0.299 | higher apparent clearance in healthy subjects than patients with RA ([1]; two Phase 1 studies vs Phase 2 trial): 52% | PPI effect on Cmax [2]: PPI decreases the Cmax
Compound: C[C@H]1CN(C2COC2)CCN1c1ccc(Nc2cc(-c3ccnc(N4CCn5c(cc6c5CC(C)(C)C6)C4=O)c3CO)cn(C)c2=O)nc1 [fenebrutinib]
food effect on concentration-time profile and Tmax [2]: food blunts the concentration-time profile and delays the Tmax | Max drug effect over time - Eastern Europe ([3]; ACR20/50/70 E-R model θ9, logit scale): 1.39 | Max drug effect over time - Latin America ([3]; ACR20/50/70 E-R model θ14): 2.06 | efficacy versus exposure (ACR responses and DAS28 (CRP)) ([3]; graphical exploration and model-based simulation, cohort 1 MTX-IR patients, exposure range of Phase 2 study): plateau of efficacy was achieved | Time of 50% drug effect ([4]; DAS28 (CRP) E-R model θ4): 47 days | Maximum drug effect over time (DAS28) ([4]; DAS28 (CRP) E-R model θ6): -0.964 | ω2Max drug effect ([4]; DAS28 (CRP) E-R model ω2.2, inter-individual variability): 0.283 | efficacy in terms of ACR20, ACR50, and ACR70 compared to the registrational doses of adalimumab and tofacitinib ([5]; MBMA simulation, 200 mg BID, TNF-IR patients, 12 weeks after initiation of treatment): comparable efficacy | ED50, dose at which 50% of efficacy ([5]; calculated from E-R EC50 and fixed in MBMA model): 525 mg/week | accumulation ([6]; following twice daily dosing): modest accumulation | increase of plasma exposures with dose ([6]; healthy subjects): approximately dose-proportionally | steady-state half-life ([6]; healthy subjects): 4.2 to 9.9 h | time of peak plasma concentrations after oral administration ([6]; healthy subjects): 1 to 3 h | inhibition of BTK [7]: dose- and concentration-dependent inhibition

Compound: adalimumab [reference compound]
ACR20, ACR50, and ACR70 response rates in arm of the fenebrutinib Phase 2 trial versus historical data ([5]; adalimumab 40 mg SC every other week arm, MBMA): consistent with historical data
